We go through 6 compounds from US7452546B2, “Particles containing agricultural active ingredients” (priority 1997, dated 2008).

Like-named read-outs stand apart in the source and are kept apart here.

For series [1], the system named is plants. The conditions noted are these: cited from earlier work.
A short description of series [2]: Water saturation concentration of active ingredient. The conditions noted are these: room temperature stated for epoxiconazole. The series is classed as physicochemical.
Where [3] appears, read: The Pesticide Manual, Eleventh Edition, 1997.

On to `CCCCC(O)(Cn1cncn1)c1ccc(Cl)cc1Cl` (stereo not drawn) [hexaconazole], for which the phytotoxicity to plants entry in series [1] (in vivo) is “can cause damage to McIntosh apples”.

On to `CC1(C)CCC(Cc2ccc(Cl)cc2)C1(O)Cn1cncn1` (stereo not drawn) [metconazole], for which the phytotoxicity to plants result in series [1] (in vivo) was “can cause stunting and yellowing of plants”.

Take `Fc1ccc([C@]2(Cn3cncn3)O[C@H]2c2ccccc2Cl)cc1` (racemic) [epoxiconazole]: the water saturation concentration in series [2] amounted to 7 ppm.

As for `CC(C)(C)C(O)C(Oc1ccc(-c2ccccc2)cc1)n1cncn1` (stereo not drawn) [bitertanol], the phytotoxicity to plants entry in series [1] (setting [3]) was “can cause damage to fruit crops”.

In series [2], `CC(C)(C)C(O)(CCc1ccc(Cl)cc1)Cn1cncn1` (stereo not drawn) [tebuconazole] came in with a water saturation concentration of 32 ppm.

As to `CC1COC(Cn2cncn2)(c2ccc(Oc3ccc(Cl)cc3)cc2Cl)O1` (stereo not drawn) [difenoconazole], the phytotoxicity to plants result in series [1] (setting [3]) is listed as “can cause chlorosis in wheat”.
